Data on one compound can be found in PMC12668304, “A Triple Threat Against Ovarian Cancer: Os(II)‐Pt(IV)‐Ceritinib Conjugates for Photodynamic Therapy, Chemotherapy, and Immunogenic Cell Death Induction” (Angewandte Chemie (International Ed. in English), 2025).

In the assay the test system is calreticulin (CRT) exposure on MCA205 cells. Briefly: Externalisation of calreticulin (confocal microscopy, anti-CRT antibody). Format: cell-based, mouse. Particulars: positive control, light condition not stated. On the procedure: Surface exposure of CRT was measured via confocal fluorescence microscopy after staining with an anti‐CRT antibody (ab2907). […] The surface exposure in the dark might be due to the oxaliplatin, a bona fide ICD inducer. Specifically, CRT expression increased by 67% upon irradiation and 63% in the dark, compared with non‐treated cells.
Figure 8 Translocation and changes in calreticulin (CRT) exposure on MCA205 cells determined by confocal fluorescence microscopy after 4 h treatment under dark (−L) and light (+L) (740 nm, 1 h) conditions, and an additional 16 h of incubation. DAPI: Nuclear fluorescence dye. Scale bar: 20 µm.
The localisation of the different parts of the studied complexes was determined by measuring the Os and Pt content inside A2780 cells via ICP-MS. […] After this time, the cells were trypsinized and counted. […] In parallel, the content of Os and Pt was determined in a total cell extraction (2·10 6 cells). […] The Os and Pt content was determined using an ICP -MS apparatus and comparing the results with the Os and Pt calibration standards.
A2780 cells were seeded in a 12-well plate to obtain a 90 –100% confluency. […] The cells were monitored by imaging over the following time intervals: 0, 6, 24, 32, and 48 h. […]
Extracellular ATP released from treated MCA205 and A2780 cells was detected by the luminescent ATP assay kit (ab113849). […]

`O=C1[O][Pt]2([NH][C@@H]3CCCC[C@H]3[NH]2)[O]C1=O` [Oxaliplatin] gave a CRT increase of 21%.
